These results are taken from patent publication US6541450B1, “Parathyroid hormone analogues for the treatment of osteoporosis” (National Research Council of Canada, priority 1994, dated 2003).

pEC50: −log10 of the molar value. Where a SMILES comes first, the peptide text is derived from it. Bridges are numbered along the chain shown (N, C = ends). [ ]: non-standard residue; d: D form. Nle = CCCC[C@H](N)C(=O)O

One data set has as its target T1, adenylyl cyclase, ROS 17/2 cells (Rattus norvegicus, UniProt P25961).
T1 sequence (P25961 27-591): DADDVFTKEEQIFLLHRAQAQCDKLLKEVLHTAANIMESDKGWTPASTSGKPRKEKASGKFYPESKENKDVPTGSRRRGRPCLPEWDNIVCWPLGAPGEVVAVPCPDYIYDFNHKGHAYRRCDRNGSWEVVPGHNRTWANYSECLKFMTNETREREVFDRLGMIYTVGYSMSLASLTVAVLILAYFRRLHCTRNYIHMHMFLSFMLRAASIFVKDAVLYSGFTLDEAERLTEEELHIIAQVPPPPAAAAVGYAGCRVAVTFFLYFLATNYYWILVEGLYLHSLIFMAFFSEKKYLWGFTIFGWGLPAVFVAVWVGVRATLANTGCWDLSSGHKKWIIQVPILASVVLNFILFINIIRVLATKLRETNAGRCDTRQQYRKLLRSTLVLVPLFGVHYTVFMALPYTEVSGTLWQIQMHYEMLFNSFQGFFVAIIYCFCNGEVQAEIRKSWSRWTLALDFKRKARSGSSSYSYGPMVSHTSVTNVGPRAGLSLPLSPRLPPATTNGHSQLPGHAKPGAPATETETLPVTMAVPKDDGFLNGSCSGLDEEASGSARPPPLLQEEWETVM
The data set is described as follows: Adenylyl cyclase stimulation, [3H]-cyclic AMP production in ROS 17/2 cells. It is filed as cell-based. Particulars: ROS 17/2 cells; concentration for half-maximal increase in AC activity; read-out: Adenylyl Cyclase (EC50).
In the case of `CC[C@H](C)[C@H](NC(=O)[C@H](CCC(=O)O)NC(=O)[C@H](CO)NC(=O)[C@@H](NC(=O)[C@@H](N)CO)C(C)C)C(=O)N[C@@H](CCC(N)=O)C(=O)N[C@@H](CC(C)C)C(=O)N[C@@H](CCSC)C(=O)N[C@@H](Cc1c[nH]cn1)C(=O)N[C@@H](CC(N)=O)C(=O)N[C@@H](CC(C)C)C(=O)NCC(=O)N[C@@H](CCCCN)C(=O)N[C@@H](Cc1c[nH]cn1)C(=O)N[C@@H](CC(C)C)C(=O)N[C@@H](CC(N)=O)C(=O)N[C@@H](CO)C(=O)N[C@@H](CCSC)C(=O)N[C@@H](CCC(=O)O)C(=O)N[C@@H](CCCNC(=N)N)C(=O)N[C@H](C(=O)N[C@@H](CCC(=O)O)C(=O)N[C@@H](Cc1c[nH]c2ccccc12)C(=O)N[C@@H](CC(C)C)C(=O)N[C@@H](CCCNC(=N)N)C(=O)N[C@H]1CSSC[C@@H](C(=O)N[C@H](C(N)=O)C(C)C)NC(=O)[C@H](CCC(N)=O)NC(=O)[C@H](CC(C)C)NC(=O)[C@H](CC(C)C)NC1=O)C(C)C` [[Cys^26, Cys^30, Leu^27]cyclo(Cys^26—Cys^30)—hPTH—(1-31)-NH2] (H-SVSEIQLMHNLGKHLNSMERVEWLRCLLQCV-NH2; disulfide 26-30), the negative-log EC50 (pEC50) is 7.62.

Turning to `CC[C@H](C)[C@H](NC(=O)[C@H](CCC(=O)O)NC(=O)[C@H](CO)NC(=O)[C@@H](NC(=O)[C@@H](N)CO)C(C)C)C(=O)N[C@@H](CCC(N)=O)C(=O)N[C@@H](CC(C)C)C(=O)N[C@@H](CCSC)C(=O)N[C@@H](Cc1c[nH]cn1)C(=O)N[C@@H](CC(N)=O)C(=O)N[C@@H](CC(C)C)C(=O)NCC(=O)N[C@@H](CCCCN)C(=O)N[C@@H](Cc1c[nH]cn1)C(=O)N[C@@H](CC(C)C)C(=O)N[C@@H](CC(N)=O)C(=O)N[C@@H](CO)C(=O)N[C@@H](CCSC)C(=O)N[C@@H](CCC(=O)O)C(=O)N[C@@H](CCCNC(=N)N)C(=O)N[C@H](C(=O)N[C@H]1CCC(=O)NCCCC[C@@H](C(=O)N[C@@H](CCCCN)C(=O)N[C@@H](CC(C)C)C(=O)N[C@@H](CCC(N)=O)C(=O)N[C@@H](CC(=O)O)C(=O)N[C@H](C(N)=O)C(C)C)NC(=O)[C@H](CCCNC(=N)N)NC(=O)[C@H](CC(C)C)NC(=O)[C@H](Cc2c[nH]c3ccccc23)NC1=O)C(C)C` [cyclo(Glu^22—Lys^26)—hPTH—(1-31)-NH2], the pEC50 was 7.77.

Take `CC[C@H](C)[C@H](NC(=O)[C@H](CCC(=O)O)NC(=O)[C@H](CO)NC(=O)[C@@H](NC(=O)[C@@H](N)CO)C(C)C)C(=O)N[C@@H](CCC(N)=O)C(=O)N[C@@H](CC(C)C)C(=O)N[C@@H](CCSC)C(=O)N[C@@H](Cc1c[nH]cn1)C(=O)N[C@@H](CC(N)=O)C(=O)N[C@@H](CC(C)C)C(=O)NCC(=O)N[C@@H](CCCCN)C(=O)N[C@@H](Cc1c[nH]cn1)C(=O)N[C@@H](CC(C)C)C(=O)N[C@@H](CC(N)=O)C(=O)N[C@@H](CO)C(=O)N[C@@H](CCSC)C(=O)N[C@@H](CCC(=O)O)C(=O)N[C@@H](CCCN=C(N)N)C(=O)N[C@H](C(=O)N[C@H]1CCC(=O)NCCCC[C@@H](C(=O)N[C@@H](CC(C)C)C(=O)N[C@@H](CC(C)C)C(=O)N[C@@H](CCC(N)=O)C(=O)N[C@@H](CC(=O)O)C(=O)N[C@H](C(N)=O)C(C)C)NC(=O)[C@H](CCCN=C(N)N)NC(=O)[C@H](CC(C)C)NC(=O)[C@H](Cc2c[nH]c3ccccc23)NC1=O)C(C)C` [peptide 3, [Leu^27]cyclo(Glu^22-Lys^26)-hPTH-(1-31)-NH2] (H-SVSEIQLMHNLGKHLNSMERVEWLRKLLQDV-NH2; lactam 22-26): the negative logarithm of the EC50 (pEC50) is 8.52.

Take `CC[C@H](C)[C@H](NC(=O)[C@H](CCC(=O)O)NC(=O)[C@H](CO)NC(=O)[C@@H](NC(=O)[C@@H](N)CO)C(C)C)C(=O)N[C@@H](CCC(N)=O)C(=O)N[C@@H](CC(C)C)C(=O)N[C@@H](CCSC)C(=O)N[C@@H](Cc1c[nH]cn1)C(=O)N[C@@H](CC(N)=O)C(=O)N[C@@H](CC(C)C)C(=O)NCC(=O)N[C@@H](CCCCN)C(=O)N[C@@H](Cc1c[nH]cn1)C(=O)N[C@@H](CC(C)C)C(=O)N[C@@H](CC(N)=O)C(=O)N[C@@H](CO)C(=O)N[C@@H](CCSC)C(=O)N[C@@H](CCC(=O)O)C(=O)N[C@@H](CCCNC(=N)N)C(=O)N[C@H](C(=O)N[C@H]1CCC(=O)NCCCC[C@@H](C(=O)N[C@@H](CC(C)C)C(=O)N[C@@H](CC(C)C)C(=O)N[C@@H](CCC(N)=O)C(=O)N[C@@H](CC(=O)O)C(=O)N[C@H](C(=O)N[C@@H](Cc2c[nH]cn2)C(=O)N[C@@H](CC(N)=O)C(=O)N[C@@H](Cc2ccccc2)C(=O)O)C(C)C)NC(=O)[C@H](CCCNC(=N)N)NC(=O)[C@H](CC(C)C)NC(=O)[C@H](Cc2c[nH]c3ccccc23)NC1=O)C(C)C` [[Leu^27]cyclo(Glu^22—Lys^26)—hPTH—(1-34)-OH] (H-SVSEIQLMHNLGKHLNSMERVEWLRKLLQDVHNF-OH; lactam 22-26; N-terminus assumed): the negative-log EC50 (pEC50) was 8.22.

For the molecule `CC[C@H](C)[C@H](NC(=O)[C@H](CCC(=O)O)NC(=O)[C@H](CO)NC(=O)[C@@H](NC(=O)[C@@H](N)CO)C(C)C)C(=O)N[C@@H](CCC(N)=O)C(=O)N[C@@H](CC(C)C)C(=O)N[C@@H](CCSC)C(=O)N[C@@H](Cc1c[nH]cn1)C(=O)N[C@@H](CC(N)=O)C(=O)N[C@@H](CC(C)C)C(=O)NCC(=O)N[C@@H](CCCCN)C(=O)N[C@@H](Cc1c[nH]cn1)C(=O)N[C@@H](CC(C)C)C(=O)N[C@@H](CC(N)=O)C(=O)N[C@@H](CO)C(=O)N[C@@H](CCSC)C(=O)N[C@@H](CCC(=O)O)C(=O)N[C@@H](CCCNC(=N)N)C(=O)N[C@H](C(=O)N[C@H]1CSSC[C@@H](C(=O)N[C@@H](CC(C)C)C(=O)N[C@@H](CC(C)C)C(=O)N[C@@H](CCC(N)=O)C(=O)N[C@@H](CC(=O)O)C(=O)N[C@H](C(N)=O)C(C)C)NC(=O)[C@H](CCCNC(=N)N)NC(=O)[C@H](CC(C)C)NC(=O)[C@H](Cc2c[nH]c3ccccc23)NC1=O)C(C)C` [[Cys^22, Cys^26, Leu^27]cyclo(Cys^22—Cys^26)—hPTH—(1-31)-NH2] (H-SVSEIQLMHNLGKHLNSMERVCWLRCLLQDV-NH2; disulfide 22-26), the pEC50 is 7.80.

For `CC[C@H](C)[C@H](NC(=O)[C@H](CCC(=O)O)NC(=O)[C@H](CO)NC(=O)[C@@H](NC(=O)[C@@H](N)CO)C(C)C)C(=O)N[C@@H](CCC(N)=O)C(=O)N[C@@H](CC(C)C)C(=O)N[C@@H](CCSC)C(=O)N[C@@H](Cc1c[nH]cn1)C(=O)N[C@@H](CC(N)=O)C(=O)N[C@@H](CC(C)C)C(=O)NCC(=O)N[C@@H](CCCCN)C(=O)N[C@@H](Cc1c[nH]cn1)C(=O)N[C@@H](CC(C)C)C(=O)N[C@@H](CC(N)=O)C(=O)N[C@@H](CO)C(=O)N[C@@H](CCSC)C(=O)N[C@@H](CCC(=O)O)C(=O)N[C@@H](CCCNC(=N)N)C(=O)N[C@H](C(=O)N[C@H]1CCC(=O)NCCCC[C@@H](C(=O)N[C@@H](C)C(=O)N[C@@H](CC(C)C)C(=O)N[C@@H](CCC(N)=O)C(=O)N[C@@H](CC(=O)O)C(=O)N[C@H](C(N)=O)C(C)C)NC(=O)[C@H](CCCNC(=N)N)NC(=O)[C@H](CC(C)C)NC(=O)[C@H](Cc2c[nH]c3ccccc23)NC1=O)C(C)C` [[Ala^27]cyclo(Glu^22—Lys^26)—hPTH—(1-31)-NH2] (H-SVSEIQLMHNLGKHLNSMERVEWLRKALQDV-NH2; lactam 22-26; N-terminus assumed), the pEC50 was 8.05.

Turning to `CCCC[C@H](NC(=O)[C@H](CO)NC(=O)[C@H](CC(N)=O)NC(=O)[C@H](CC(C)C)NC(=O)[C@H](Cc1c[nH]cn1)NC(=O)[C@H](CCCCN)NC(=O)CNC(=O)[C@H](CC(C)C)NC(=O)[C@H](CC(N)=O)NC(=O)[C@H](Cc1c[nH]cn1)NC(=O)[C@H](CCCC)NC(=O)[C@H](CC(C)C)NC(=O)[C@H](CCC(N)=O)NC(=O)[C@@H](NC(=O)[C@H](CCC(=O)O)NC(=O)[C@H](CO)NC(=O)[C@@H](NC(=O)[C@@H](N)CO)C(C)C)[C@@H](C)CC)C(=O)N[C@@H](CCC(=O)O)C(=O)N[C@@H](CCCNC(=N)N)C(=O)N[C@H](C(=O)N[C@H]1CCC(=O)NCCCC[C@@H](C(=O)N[C@@H](CC(C)C)C(=O)N[C@@H](CC(C)C)C(=O)N[C@@H](CCC(N)=O)C(=O)N[C@@H](CC(=O)O)C(=O)N[C@H](C(N)=O)C(C)C)NC(=O)[C@H](CCCNC(=N)N)NC(=O)[C@H](CC(C)C)NC(=O)[C@H](Cc2c[nH]c3ccccc23)NC1=O)C(C)C` [[Nle^8.18, Leu^27]cyclo(Glu^22—Lys^26)—hPTH—(1-31)-NH2] (H-SVSEIQL[Nle]HNLGKHLNS[Nle]ERVEWLRKLLQDV-NH2; lactam 22-26; N-terminus assumed), the pEC50 is 8.22.

In a further data set the test system is anesthetized female Sprague-Dawley rats. The data set can be described thus: Hypotensive effect, tail artery pressure in anaesthetized rats. Particulars: subcutaneous, 0.8 nmol/100 g; inferred from time to minimum bp.
Description: Female Sprague-Dawley rats (weighing over 290 g) were anaesthetized with intraperitoneally injected sodium pentobarbital (65 mg/kg body weight). Rectal temperature was monitored with a YS1402 thermistor (Yellow Springs Instrument Co., Inc. Yellow Springs, Ohio) and maintained between 36.0 and 38.5° C. throughout the experiment. Ear pinna temperature was also monitored using a YSi banjo thermistor. The tail artery was exposed to cannulated with a Jelco 25-gIV catheter (Johnson and Johnson Medical Inc., Arlington, Tex.) and connected to a Statham pressure transducer, the signals from which were recorded digitally with a Biopac Systems MP100 Monitor (Harvard Instruments, Saint Laurent, QC, Canada). For intravenous injection of PTH or one of its fragments, a femoral vein was also exposed. After surgery, the rat was allowed to stabilize for 8 min after which PTH or one of its fragments (dissolved in acidified saline containing 0.001 N HCl) was injected into the femoral vein or under the skin of the abdomen. Data were collected for 12 min after intravenous injection or for 22 min after subcutaneous injection.
Consider `CC[C@H](C)[C@H](NC(=O)[C@H](CCC(=O)O)NC(=O)[C@H](CO)NC(=O)[C@@H](NC(=O)[C@@H](N)CO)C(C)C)C(=O)N[C@@H](CCC(N)=O)C(=O)N[C@@H](CC(C)C)C(=O)N[C@@H](CCSC)C(=O)N[C@@H](Cc1c[nH]cn1)C(=O)N[C@@H](CC(N)=O)C(=O)N[C@@H](CC(C)C)C(=O)NCC(=O)N[C@@H](CCCCN)C(=O)N[C@@H](Cc1c[nH]cn1)C(=O)N[C@@H](CC(C)C)C(=O)N[C@@H](CC(N)=O)C(=O)N[C@@H](CO)C(=O)N[C@@H](CCSC)C(=O)N[C@@H](CCC(=O)O)C(=O)N[C@@H](CCCN=C(N)N)C(=O)N[C@H](C(=O)N[C@H]1CCC(=O)NCCCC[C@@H](C(=O)N[C@@H](CC(C)C)C(=O)N[C@@H](CC(C)C)C(=O)N[C@@H](CCC(N)=O)C(=O)N[C@@H](CC(=O)O)C(=O)N[C@H](C(N)=O)C(C)C)NC(=O)[C@H](CCCN=C(N)N)NC(=O)[C@H](CC(C)C)NC(=O)[C@H](Cc2c[nH]c3ccccc23)NC1=O)C(C)C` [peptide 3, [Leu^27]cyclo(Glu^22-Lys^26)-hPTH-(1-31)-NH2] (H-SVSEIQLMHNLGKHLNSMERVEWLRKLLQDV-NH2; lactam 22-26), for which the “bioavailability, in words” value is on record as “increased bioavailability”.
